{"source": "patent US9114164B2", "about": "(MEXICHEM AMANCO HOLDING S.A. DE C.V., priority 2011, dated 2015)", "assay": "in vitro aerosolization performance from MDI, Next Generation Impactor (NGI) with HPLC", "assay_type": "physicochemical", "conditions": "formulated with R-152a rather than R-134a", "method": "Drug was weighed directly into standard aluminium 19 mL cans (C128, Presspart, Blackburn, UK). The cans were then crimped with a 50 μL valve (Bespak, Kings Lynn, UK). Finally, the propellant was filled into the cans through the valve using a manual Pamasol crimper/filler (Pamasol, Switzerland). High performance liquid chromatography (HPLC) was used to determine drug content following aerosolization studies (see below). The HPLC machine consisted of a pump, column oven, column coupled to a UV detector (all Agilent 1200, Wokingham, Berkshire, UK). A Hypersil BDS C18 column (Fisher, Loughborough, UK, 5 μm, 250×4.6 mm i.d.) was used for high-throughput analysis of samples. The in vitro aerosolization performance of the formulations was studied using a Next Generation Impactor (NGI, Copley Scientific, Nottingham UK), which was connected to a vacuum pump (GE Motors, NJ, USA). Prior to testing, the cups of the NGI system were coated with 1% v/v silicone oil in hexane to eliminate particle bounce. For each experiment, three actuations of the can were discharged into the NGI at 30 L·min^−1 as per pharmacopeia guidelines. […] The mass of drug deposited on each part of the NGI was determined by HPLC. This protocol was repeated three times for the can, following which, the fine particle dose (FPD) and fine particle fraction of the emitted dose (FPFED) were determined."}
{"substance": "salbutamol sulphate", "values": [{"measurement": "emitted dose, comparison in words", "value": "significantly (p<0.05) greater"}]}
